From patent publication US10987319B2, “TFEB activator C1 ameliorates app and tau pathology and rescues cognitive deficits in neurodegenerative diseases” (Hong Kong Baptist University, priority 2018, dated 2021)

Tests used:
Format in all cases: in vivo
[1] = tested on: APP, CTFs, phosphorylated Tau, total Tau, TFEB, LC3-II; assay: Western blotting of hippocampus, female 3×Tg mice
Method: Homozygous 3×Tg mice (APP KM670/671NL (Swedish), MAPT P301L, PSEN1 M146V) were produced in Hong Kong Baptist University animal house and maintained at 23±2° C. temperature, 60±15% relative humidity with free access to food and water ad libitum.
Brain tissues were lysed with RIPA buffer (TBS with 1% NP-40, 1% sodium deoxycholic acid, 0.1% SDS, and protease phosphatase inhibitor cocktails) and centrifuged at 15,000 RPM for 30 min. Supernatant is collected and the pellets were further lysed with 2% SDS in RIPA buffer. Protein concentration was estimated by BCA assay. […] Protein chemiluminescence signal was detected by using ECL kit and quantified using ImageJ software.

5×FAD mice = assay: Long-term potentiation (TBS, MED64 multi-electrode array) in hippocampal slices of treated mice; settings: female 5×FAD mice, 10 mg/kg oral 3 months, P<0.001
Method: Heterozygous male 5×FAD mice purchased from Jackson laboratory (#006554) were maintained HKBU animal house at 23±2 OC and 60-15% relative humidity with free access to feed and water ad libitum. Male 5×FAD mice were bred with female wild-type C57BL/6. The produced heterozygous litters were maintained until their age 2 months. At 2 months age tail sample is collected in Non-ionic detergent buffer (50 mM KCL, 10 mM Tris-HCL, 2.5 mM mgCl2, 0.1 mg/ml Gelatin, 0.45% v/v NP-40, 0.45% v/v Tween 20 and 100 μgm/ml Proteinase K). Tail samples were incubated in 55° C. for overnight and denatured at 95° C. for 5 mins. Denatured samples were centrifuged, and supernatant is used for genotyping. Mice tail samples were genotyped using standard PCR protocol by using GoTaq G2 Green Master Mix (M7822), for APP, Forward 5′-[…]-3′ (SEQ ID NO: 81) and reverse, 5′-CGGGGGTCTAGTTCTGCAT-3′ (SEQ ID NO: 82). […]
Brain slice preparation: Wild type and 5× mice treated with or without C1 were cervical dislocated and rapidly brain was removed and placed in oxygenated ice-cold sucrose buffer (213 mM sucrose, 10 mM D-glucose, 2.5 mM KCL, 1.25 mM KH2PO4, 2.5 mM CaCl2, 10 mM MgSO4.7H2O, 75 mM NaCl and […] NaHCO3). […] Slope of each Excitatory Post Synaptic Potential […] (fEPSP) is calculated by using MED64-Quad II system and Mobius MED 64 software.

Aβ plaques = assay: Immunohistochemistry of Aβ plaques (4G8 antibody), 5×FAD mice
Method: Male 5×FAD mice were purchased from Jackson laboratories (Stock number 006554) and maintained at 23±2° C. temperature, 60±15% relative humidity with free access to food and water ad libitum. 5×FAD male mice were inbred with wild-type (WT, C57/BL6) female mice to produce heterozygous offspring. Offspring were genotyped to select 5×FAD (APP KM670/671NL (Swedish), APP I716V (Florida), APP V717I (London), PSEN1 M146L (A>C), PSEN1 L286V) gene mutations mice. Two months old WT and 5×FAD mice (male and female, n=10-14 per group) were treated daily with vehicle (1% sodium carbonyl methylcellulose [CMC-Na; Sigma-Aldrich, C5678]), curcumin analogue C1 (5 mg/kg, 10 mg/kg) or curcumin (50 mg/kg; Sigma-Aldrich, 08511) suspended in 1% CMC-Na by oral gavage for 4 months.
Mice half brains were fixed with 4% paraformaldehyde in PBS overnight and dehydrated in 30% sucrose in PBS for at least 24 h. Brain sections (30 μm) were cut on a microtome and stored at 4° C. in PBS+0.1% sodium azide. Sections were permeabilized for 10 min with cold PBS containing 0.5% Triton X-100 and blocked with 3% bovine serum albumin for 1 h at room temperature. The sections were incubated with biotinylated 4G8 antibody (800701, Biolegend) overnight, and then incubated with Avidin-Biotin enzyme complex (Vecstatin-ELITE ABC-HRP kit) and Aβ plaques were visualized by DAB peroxidase and quantified using ImageJ software.

**Q.** `COc1ccccc1/C=C/C(=O)/C=C/c1ccccc1OC` [Compound C1, 1,5-bis(2-methoxyphenyl)penta-1,4-dien-3-one] was tested. Which “hippocampal CTFs” value ([1]; 10 mg/kg oral 7 months) did it give?
**A.** significantly reduced

**Q.** And the “hippocampal Fl-APP levels” value ([1]; 10 mg/kg oral 7 months)?
**A.** but not Fl-APP levels

**Q.** What about the “levels of phosphorylated Tau (PHF1, AT8)” value ([1]; hippocampus, 10 mg/kg oral 7 months) of the same molecule?
**A.** significantly decreased

**Q.** And the “levels of LC3-II” value ([1]; oral 7 months)?
**A.** significantly increased

**Q.** What about the “levels of nuclear TFEB” value ([1]; oral 7 months) of the same molecule?
**A.** significantly increased

**Q.** What about the “synaptic plasticity (long-term potentiation induced by TBS, fEPSP slope) vs vehicle” value (5×FAD mice) of the same molecule?
**A.** significantly restored

**Q.** And the “Aβ plaque load in cortico-hippocampal sections” value (Aβ plaques; high dosage 10 mg/kg oral 4 months)?
**A.** significant reduction

**Q.** And the “Aβ plaque load in cortico-hippocampal sections” value (Aβ plaques; low dosage 5 mg/kg oral 4 months)?
**A.** significant reduction
